In ChEMBL document CHEMBL1150413, “A series of potent and selective, triazolylphenyl-based histone deacetylases inhibitors with activity against pancreatic cancer cells and Plasmodium falciparum” (J Med Chem, 2008):

What was measured:
[1] = target: Histone deacetylase 2 (Homo sapiens, UniProt Q92769)
[2] = Selectivity for HDAC10 over HDAC1
[3] = tested on: BXPC-3; experiment: Cytotoxicity against human BxPC3 cells after 72 hrs by MTT assay; format: functional, cell-based; settings: BXPC-3, 72 h
[4] = Cytotoxicity against human Hup T3 cells after 72 hrs by MTT assay; format: functional, cell-based; settings: HuP-T3, 72 h
[5] = tested on: MIA PaCa-2; experiment: Cytotoxicity against human Mia Paca2 cells after 72 hrs by MTT assay; format: functional, cell-based; settings: MIA PaCa-2, 72 h
[6] = Cytotoxicity against human Panc 04.03 cells after 72 hrs by MTT assay; format: functional, cell-based; settings: Panc 04.03, 72 h
[7] = Cytotoxicity against human SU 86.86 cells after 72 hrs by MTT assay; format: functional, cell-based; settings: SU.86.86, 72 h
[8] = tested on: Plasmodium falciparum; experiment: Antimalarial activity against Plasmodium falciparum D6 by hypoxanthine uptake; format: functional, organism-based
[9] = tested on: Plasmodium falciparum; experiment: Antimalarial activity against Plasmodium falciparum W2 by hypoxanthine uptake; format: functional, organism-based
[10] = tested on: Plasmodium falciparum; experiment: Antimalarial activity against Plasmodium falciparum TM90C2A by hypoxanthine uptake; format: functional, organism-based
[11] = target: Histone deacetylase 1 (Homo sapiens, UniProt Q13547)
Histone deacetylase 1, sequence (Q13547 whole entry): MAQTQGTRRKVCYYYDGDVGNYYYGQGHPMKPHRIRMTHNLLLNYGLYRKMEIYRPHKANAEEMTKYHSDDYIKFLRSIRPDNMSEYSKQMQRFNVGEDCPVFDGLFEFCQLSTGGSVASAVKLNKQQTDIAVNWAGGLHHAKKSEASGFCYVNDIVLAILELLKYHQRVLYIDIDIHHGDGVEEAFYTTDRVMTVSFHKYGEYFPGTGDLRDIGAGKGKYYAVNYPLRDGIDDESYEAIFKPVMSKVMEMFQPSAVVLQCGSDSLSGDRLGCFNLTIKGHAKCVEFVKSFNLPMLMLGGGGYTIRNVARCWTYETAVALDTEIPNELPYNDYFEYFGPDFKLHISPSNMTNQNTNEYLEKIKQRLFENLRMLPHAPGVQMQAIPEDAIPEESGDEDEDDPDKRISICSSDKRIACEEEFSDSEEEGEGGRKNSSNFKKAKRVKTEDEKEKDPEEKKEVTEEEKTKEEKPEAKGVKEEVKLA

[12] = target: T1, Histone deacetylase 8 (Homo sapiens, UniProt Q9BY41)
T1 sequence (Q9BY41 whole entry): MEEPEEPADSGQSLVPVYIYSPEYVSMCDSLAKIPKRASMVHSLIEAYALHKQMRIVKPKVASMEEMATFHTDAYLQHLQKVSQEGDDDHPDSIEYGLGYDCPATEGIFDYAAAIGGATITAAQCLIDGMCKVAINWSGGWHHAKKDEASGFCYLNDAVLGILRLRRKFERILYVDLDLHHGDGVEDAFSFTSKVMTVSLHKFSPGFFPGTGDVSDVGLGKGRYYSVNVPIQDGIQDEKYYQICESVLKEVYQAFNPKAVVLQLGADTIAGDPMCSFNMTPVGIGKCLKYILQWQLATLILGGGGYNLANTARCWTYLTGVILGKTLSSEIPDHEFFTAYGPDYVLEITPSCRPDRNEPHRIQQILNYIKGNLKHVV

[13] = target: T2, Polyamine deacetylase HDAC10 (Homo sapiens, UniProt Q969S8)
T2 sequence (Q969S8 whole entry): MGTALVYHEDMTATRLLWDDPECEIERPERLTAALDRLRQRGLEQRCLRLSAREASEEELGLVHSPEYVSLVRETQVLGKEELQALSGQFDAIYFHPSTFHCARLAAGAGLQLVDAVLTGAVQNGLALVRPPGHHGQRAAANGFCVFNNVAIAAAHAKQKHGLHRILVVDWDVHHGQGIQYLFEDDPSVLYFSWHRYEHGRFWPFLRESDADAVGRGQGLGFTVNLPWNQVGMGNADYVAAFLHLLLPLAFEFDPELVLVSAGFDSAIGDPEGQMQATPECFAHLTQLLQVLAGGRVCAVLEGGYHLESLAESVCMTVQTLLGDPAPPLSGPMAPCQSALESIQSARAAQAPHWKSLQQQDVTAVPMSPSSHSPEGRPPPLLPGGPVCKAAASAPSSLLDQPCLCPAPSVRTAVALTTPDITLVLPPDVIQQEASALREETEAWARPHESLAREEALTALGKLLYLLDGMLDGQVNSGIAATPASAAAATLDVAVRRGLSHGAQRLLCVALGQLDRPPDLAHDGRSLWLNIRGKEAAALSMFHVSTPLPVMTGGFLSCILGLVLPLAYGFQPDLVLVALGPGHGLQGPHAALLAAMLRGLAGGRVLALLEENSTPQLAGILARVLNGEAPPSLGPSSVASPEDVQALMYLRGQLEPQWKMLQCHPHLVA

[14] = target: T3, Protein deacetylase HDAC6 (Homo sapiens, UniProt Q9UBN7)
T3 sequence (Q9UBN7 whole entry): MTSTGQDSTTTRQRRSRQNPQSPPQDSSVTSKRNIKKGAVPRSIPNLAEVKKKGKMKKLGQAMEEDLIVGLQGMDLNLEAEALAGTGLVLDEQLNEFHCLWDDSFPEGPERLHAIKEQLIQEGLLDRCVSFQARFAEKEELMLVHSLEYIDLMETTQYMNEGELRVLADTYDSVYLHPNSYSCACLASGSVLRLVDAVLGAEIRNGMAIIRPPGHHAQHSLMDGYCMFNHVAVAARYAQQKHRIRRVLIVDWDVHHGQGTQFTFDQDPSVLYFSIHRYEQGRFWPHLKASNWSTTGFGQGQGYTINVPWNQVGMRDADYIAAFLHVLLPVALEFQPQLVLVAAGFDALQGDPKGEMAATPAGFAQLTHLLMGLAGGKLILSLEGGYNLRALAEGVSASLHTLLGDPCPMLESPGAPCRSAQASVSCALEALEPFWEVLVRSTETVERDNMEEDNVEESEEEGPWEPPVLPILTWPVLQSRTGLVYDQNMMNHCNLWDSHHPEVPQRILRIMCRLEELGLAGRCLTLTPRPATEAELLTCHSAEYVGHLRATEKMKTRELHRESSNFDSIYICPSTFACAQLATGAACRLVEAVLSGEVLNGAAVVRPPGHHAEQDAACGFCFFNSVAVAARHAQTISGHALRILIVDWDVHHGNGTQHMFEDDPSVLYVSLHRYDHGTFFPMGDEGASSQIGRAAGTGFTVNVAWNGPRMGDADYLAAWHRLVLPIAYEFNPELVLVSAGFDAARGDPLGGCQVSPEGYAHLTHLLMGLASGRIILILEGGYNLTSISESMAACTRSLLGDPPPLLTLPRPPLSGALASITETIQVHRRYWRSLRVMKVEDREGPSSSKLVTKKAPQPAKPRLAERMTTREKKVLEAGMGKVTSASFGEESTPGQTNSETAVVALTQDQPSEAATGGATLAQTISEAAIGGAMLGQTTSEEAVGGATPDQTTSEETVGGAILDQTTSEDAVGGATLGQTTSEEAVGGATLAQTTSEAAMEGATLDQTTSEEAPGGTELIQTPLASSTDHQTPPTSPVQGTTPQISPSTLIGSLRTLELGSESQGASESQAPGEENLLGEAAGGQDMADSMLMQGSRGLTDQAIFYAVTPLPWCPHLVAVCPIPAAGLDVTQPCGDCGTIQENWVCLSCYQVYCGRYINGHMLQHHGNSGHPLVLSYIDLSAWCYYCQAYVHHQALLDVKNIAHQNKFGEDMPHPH

[15] = tested on: Plasmodium falciparum; experiment: microbe, parasite or virus in culture; settings: TM91C235
Description: Antimalarial activity against Plasmodium falciparum TM91C235 by hypoxanthine uptake

[16] = target: Histone deacetylase 3 (Homo sapiens, UniProt O15379)
Histone deacetylase 3, sequence (O15379 whole entry): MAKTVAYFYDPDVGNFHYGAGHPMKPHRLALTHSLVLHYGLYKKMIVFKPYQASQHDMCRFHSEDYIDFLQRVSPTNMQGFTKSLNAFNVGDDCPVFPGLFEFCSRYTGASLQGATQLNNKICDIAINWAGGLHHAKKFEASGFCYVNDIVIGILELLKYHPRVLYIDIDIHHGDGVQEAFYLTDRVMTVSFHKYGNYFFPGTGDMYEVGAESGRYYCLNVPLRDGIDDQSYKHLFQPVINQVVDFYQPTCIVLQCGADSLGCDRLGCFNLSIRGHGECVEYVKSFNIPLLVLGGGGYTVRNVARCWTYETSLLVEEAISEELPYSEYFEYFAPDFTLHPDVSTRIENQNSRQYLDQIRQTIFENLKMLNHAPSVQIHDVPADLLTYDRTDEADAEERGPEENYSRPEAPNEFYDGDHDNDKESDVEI

Histone deacetylase 2, sequence (Q92769 whole entry): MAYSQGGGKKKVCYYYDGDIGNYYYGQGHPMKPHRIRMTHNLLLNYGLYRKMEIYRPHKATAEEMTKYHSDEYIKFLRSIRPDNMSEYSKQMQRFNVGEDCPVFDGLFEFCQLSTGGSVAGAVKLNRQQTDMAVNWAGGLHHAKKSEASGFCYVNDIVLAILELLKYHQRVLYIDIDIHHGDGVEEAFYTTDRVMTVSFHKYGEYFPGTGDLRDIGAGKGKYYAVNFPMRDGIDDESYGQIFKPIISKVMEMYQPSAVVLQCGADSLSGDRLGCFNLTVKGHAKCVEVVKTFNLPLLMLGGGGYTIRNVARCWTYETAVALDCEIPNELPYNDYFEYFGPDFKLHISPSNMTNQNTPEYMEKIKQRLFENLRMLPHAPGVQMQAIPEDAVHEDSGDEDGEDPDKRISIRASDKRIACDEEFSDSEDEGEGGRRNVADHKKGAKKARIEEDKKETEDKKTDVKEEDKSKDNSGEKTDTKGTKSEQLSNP

SMILES | IC50 [1] | Ratio IC50 [2] | IC50 [3] | IC50 [4] | IC50 [5] | IC50 [6] | IC50 [7] | IC50 [8] | IC50 [9] | IC50 [10] | IC50 [11] | IC50 [12] | IC50 [13] | IC50 [14] | IC50 [15] | IC50 [16]
O=C(CCCCCCC(=O)Nc1ccc(-c2cn(Cc3ccccc3)nn2)cc1)NO | 679 nM | 0.6 | 9000 nM | 5000 nM | < 1000 nM | 2000 nM | 10000 nM | 210 nM | 530 nM | 160 nM | 113 nM | 3970 nM | 188 nM | 4.8 nM | 300 nM | –
O=C(CCCCCCC(=O)Nc1ccc(-c2cnnn2-c2ccccc2)cc1)NO | 146 nM | 1.3 | 13000 nM | 10000 nM | 8000 nM | 8000 nM | 11000 nM | 350 nM | 620 nM | 170 nM | 70.5 nM | 518 nM | 55.7 nM | 3.5 nM | 470 nM | 12 nM
O=C(CCCCCCC(=O)Nc1ccc(-c2cnnn2Cc2ccccc2)cc1)NO | 124 nM | 1 | 11000 nM | 5000 nM | 2000 nM | 2000 nM | 9000 nM | 400 nM | > 1200 nM | 300 nM | 68.3 nM | 790 nM | 70.1 nM | 3.1 nM | 520 nM | 9.7 nM
O=C(CCCCCCC(=O)Nc1cccc(-c2cnnn2CC(O)c2cccc(Br)c2)c1)NO (centres undefined) | 116 nM | 1.5 | 43000 nM | 42000 nM | 11000 nM | 25000 nM | 23000 nM | 180 nM | 380 nM | 120 nM | 23.4 nM | 406 nM | 15.8 nM | 2.8 nM | 390 nM | 4.2 nM
O=C(CCCCCCC(=O)Nc1cccc(-c2cnnn2Cc2ccc(F)cc2)c1)NO | 124 nM | 1.5 | 11000 nM | 5000 nM | 2000 nM | 9000 nM | 8000 nM | 300 nM | 590 nM | 210 nM | 25.9 nM | 529 nM | 17.6 nM | 3.8 nM | 460 nM | 5.8 nM
O=C(CCCCCCC(=O)Nc1ccc(-c2cn(Cc3ccc(F)cc3)nn2)cc1)NO | 294 nM | 0.9 | 22000 nM | 4000 nM | < 500 nM | 3000 nM | 11000 nM | – | – | – | 97.8 nM | 797 nM | 112 nM | 1.9 nM | – | 13.7 nM
O=C(CCCCCCC(=O)Nc1cccc(-c2cnnn2Cc2ccccc2)c1)NO | 112 nM | 1 | 12000 nM | 2000 nM | 1000 nM | 4000 nM | 7000 nM | 210 nM | 600 nM | 150 nM | 18.6 nM | 433 nM | 19.2 nM | 3.3 nM | 370 nM | 4.5 nM
O=C(CCCCCCC(=O)Nc1ccccc1)NO [VORINOSTAT] | – | – | – | 800 nM | – | – | – | – | – | – | – | – | – | – | – | –
O=C(CCCCCCC(=O)Nc1cccc(-c2cn(CC(O)c3cccc(Br)c3)nn2)c1)NO (centres undefined) | 64.4 nM | 1.1 | 11000 nM | 11000 nM | 800 nM | 14000 nM | 12000 nM | 110 nM | 560 nM | 110 nM | 14.9 nM | 440 nM | 13 nM | 1.9 nM | 260 nM | 2.7 nM
O[C@@H](c1cc(C(F)(F)F)nc2c(C(F)(F)F)cccc12)[C@H]1CCCCN1 [MEFLOQUINE] | – | – | – | – | – | – | – | 11 nM | – | – | – | – | – | – | – | –
O=C(CCCCCCC(=O)Nc1cccc(-c2cn(Cc3ccccc3)nn2)c1)NO | 43 nM | 0.8 | 3000 nM | 1000 nM | < 500 nM | 2000 nM | 2000 nM | 140 nM | 160 nM | 190 nM | 14.5 nM | 1990 nM | 18.5 nM | 3.1 nM | 220 nM | 7.9 nM
O=C(CCCCCCC(=O)Nc1ccc(-c2cnnn2Cc2ccc(F)cc2)cc1)NO | 57.4 nM | 0.8 | 11000 nM | 4000 nM | 8000 nM | 2000 nM | 10000 nM | 240 nM | 460 nM | 120 nM | 52.4 nM | 2010 nM | 64.7 nM | 7.3 nM | 290 nM | 16.4 nM
O=C(CCCCCCC(=O)Nc1ccc(-c2cn(CC(O)c3cccc(Br)c3)nn2)cc1)NO (centres undefined) | 143 nM | 0.8 | 18000 nM | 12000 nM | 600 nM | 10000 nM | 12000 nM | 80 nM | 390 nM | 190 nM | 69.2 nM | 3130 nM | 86.5 nM | 4.4 nM | 110 nM | 25.3 nM
O=C(CCCCCCC(=O)Nc1ccc(-c2cnnn2CC(O)c2cccc(Br)c2)cc1)NO (centres undefined) | 216 nM | 0.9 | 25000 nM | 46000 nM | 37000 nM | 44000 nM | 42000 nM | 230 nM | > 950 nM | 230 nM | 69.9 nM | 737 nM | 74.8 nM | 4.2 nM | 390 nM | 15.1 nM
